US20260042770A1, “NOVEL SULFONES AND THEIR USE AS NEUROPROTECTIVE AND/OR NEURORESTORATIVE AGENTS” (GENECODE, priority 2022, published 2026)

These compounds were tested against T1, GFRα1-RET (Homo sapiens, UniProt P56159) (assay: Elk1 luciferase reporter-gene assay in cells expressing GFRα1-RET). Conditions: agonist/activator activity of Elk1 signaling; MG87 murine fibroblast stably transfected with PathDetect Elk-1, GFRα1 and RET; 6 concentrations, duplicate, two independent runs.
T1 construct: expressed in transfected cells; host or cells: MG87 murine fibroblasts stably transfected with PathDetect Elk-1, GFRα1 and RET
T1 sequence (P56159 25-429 limits assumed): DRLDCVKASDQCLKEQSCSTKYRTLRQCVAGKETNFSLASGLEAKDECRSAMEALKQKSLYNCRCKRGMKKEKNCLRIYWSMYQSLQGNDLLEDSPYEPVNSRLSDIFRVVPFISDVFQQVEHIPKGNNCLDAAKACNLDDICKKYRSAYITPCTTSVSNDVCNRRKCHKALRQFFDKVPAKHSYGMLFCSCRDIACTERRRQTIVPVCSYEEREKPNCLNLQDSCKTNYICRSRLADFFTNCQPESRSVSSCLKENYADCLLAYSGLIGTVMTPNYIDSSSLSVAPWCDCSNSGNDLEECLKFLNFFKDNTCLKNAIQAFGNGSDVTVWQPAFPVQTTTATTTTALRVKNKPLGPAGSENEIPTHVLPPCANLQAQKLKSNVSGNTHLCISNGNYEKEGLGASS
Assay type: cell-based
Experimental: For EC50 determination, a dose-response test was performed using 6 concentrations of each tested compound. Dose-response curves were fitted using the sigmoidal dose-response (variable slope) analysis in GraphPad Prism program (Graph Pad Inc) and EC50 of agonist/activator activity was calculated. Dose-response experiments were all performed in duplicate, two times independently.
With `CCCCS(=O)(=O)c1ccc(OC)c(N2[C@@H]3CC[C@H]2CN(C(=O)c2ccc(F)cc2Cl)C3)c1` [Cpd 020, [(1S,5R)-8-(5-butylsulfonyl-2-methoxy-phenyl)-3,8-diazabicyclo[3.2.1]octan-3-yl]-(2-chloro-4-fluoro-phenyl)methanone] the EC50 was 1 to 10 µM. For `CCC(CC)CS(=O)(=O)c1ccc(OC)c(N2[C@@H]3CC[C@H]2CN(C(=O)c2ccc(F)cc2Cl)C3)c1` [Cpd 021, (2-chloro-4-fluoro-phenyl)-[(1S,5R)-8-[5-(2-ethylbutylsulfonyl)-2-methoxy-phenyl]-3,8-diazabicyclo[3.2.1]octan-3-yl]methanone], the EC50 was 1 to 10 µM. For `COc1ccc(S(=O)(=O)C2CCN(c3ccccc3)CC2)cc1N1[C@@H]2CC[C@H]1CN(C(=O)c1ccc(F)cc1Cl)C2` [Cpd 027, (2-chloro-4-fluoro-phenyl)-[(1S,5R)-8-[2-methoxy-5-[(1-phenyl-4-piperidyl)sulfonyl]phenyl]-3,8-diazabicyclo[3.2.1]octan-3-yl]methanone], the EC50 was < 1 µM. In the case of `COc1ccc(S(=O)(=O)C2CCN(CCc3ccccc3)CC2)cc1N1[C@@H]2CC[C@H]1CN(C(=O)c1ccc(F)cc1Cl)C2` [Cpd 028, (2-chloro-4-fluoro-phenyl)-[(1S,5R)-8-[2-methoxy-5-[[1-(2-phenylethyl)-4-piperidyl]sulfonyl]phenyl]-3,8-diazabicyclo[3.2.1]octan-3-yl]methanone], the EC50 is reported as 1 to 10 µM. Compound `COc1ccc(S(=O)(=O)C2CCN(CCc3ccc(F)cc3)CC2)cc1N1[C@@H]2CC[C@H]1CN(C(=O)c1ccc(F)cc1Cl)C2` [Cpd 029, (2-chloro-4-fluoro-phenyl)-[(1S,5R)-8-[5-[[1-[2-(4-fluorophenyl)ethyl]-4-piperidyl]sulfonyl]-2-methoxy-phenyl]-3,8-diazabicyclo[3.2.1]octan-3-yl]methanone] has an EC50 of 1 to 10 µM. In the case of `O=C(c1ccc(F)cc1Cl)N1C[C@H]2CC[C@@H](C1)N2c1cc(S(=O)(=O)C2CCN(c3ccccc3)CC2)ccc1O` [Cpd 030, (2-chloro-4-fluoro-phenyl)-[(1S,5R)-8-[2-hydroxy-5-[(1-phenyl-4-piperidyl)sulfonyl]phenyl]-3,8-diazabicyclo[3.2.1]octan-3-yl]methanone], the EC50 is reported as < 1 µM. `O=C(c1ccc(F)cc1Cl)N1C[C@H]2CC[C@@H](C1)N2c1cc(S(=O)(=O)C2CCN(CCc3ccccc3)CC2)ccc1O` [Cpd 031, (2-chloro-4-fluoro-phenyl)-[(1S,5R)-8-[2-hydroxy-5-[[1-(2-phenylethyl)-4-piperidyl]sulfonyl]phenyl]-3,8-diazabicyclo[3.2.1]octan-3-yl]methanone] gave an EC50 of 1 to 10 µM. Compound `Cc1cc(S(=O)(=O)CC(C)(C)C)cc(N2[C@@H]3CC[C@H]2CN(C(=O)c2ccc(F)cc2Cl)C3)c1O` [Cpd 032, (2-chloro-4-fluoro-phenyl)-[(1S,5R)-8-[5-(2,2-dimethylpropylsulfonyl)-2-hydroxy-3-methyl-phenyl]-3,8-diazabicyclo[3.2.1]octan-3-yl]methanone] has an EC50 of 1 to 10 µM. In the case of `CC(C)(C)CS(=O)(=O)c1cc(Cl)c(O)c(N2[C@@H]3CC[C@H]2CN(C(=O)c2ccc(F)cc2Cl)C3)c1` [Cpd 033, [(1S,5R)-8-[3-chloro-5-(2,2-dimethylpropylsulfonyl)-2-hydroxy-phenyl]-3,8-diazabicyclo[3.2.1]octan-3-yl]-(2-chloro-4-fluoro-phenyl)methanone], the EC50 is reported as < 1 µM. `CC(C)(C)CS(=O)(=O)c1cc(Cl)c(OCCO)c(N2[C@@H]3CC[C@H]2CN(C(=O)c2ccc(F)cc2Cl)C3)c1` [Cpd 034, [(1S,5R)-8-[3-chloro-5-(2,2-dimethylpropylsulfonyl)-2-(2-hydroxyethoxy)phenyl]-3,8-diazabicyclo[3.2.1]octan-3-yl]-(2-chloro-4-fluoro-phenyl)methanone] showed an EC50 of 1 to 10 µM. In the case of `CC(C)(C)CS(=O)(=O)c1cc(Cl)c(Cl)c(N2[C@@H]3CC[C@H]2CN(C(=O)c2ccc(F)cc2Cl)C3)c1` [Cpd 035, (2-chloro-4-fluoro-phenyl)-[(1S,5R)-8-[2,3-dichloro-5-(2,2-dimethylpropylsulfonyl)phenyl]-3,8-diazabicyclo[3.2.1]octan-3-yl]methanone], the EC50 is reported as < 1 µM. In the case of `Cc1c(Cl)cc(S(=O)(=O)CC(C)(C)C)cc1N1[C@@H]2CC[C@H]1CN(C(=O)c1ccc(F)cc1Cl)C2` [Cpd 036, [(1S,5R)-8-[3-chloro-5-(2,2-dimethylpropylsulfonyl)-2-methyl-phenyl]-3,8-diazabicyclo[3.2.1]octan-3-yl]-(2-chloro-4-fluoro-phenyl)methanone], the EC50 is reported as < 1 µM.
